Earlier results in patent EP0228223A2, “Non-irritating suprofen solution” (Cilag AG, priority 1985, dated 1987).
Entries after “also recorded” stand apart in the source; their conditions may differ.

Legend:
[1] = preparation swallowed; appears only seconds after swallowing, disappears within minutes

solubility in organic solvents and base (methanol, ethanol, chloroform, acetone, polyethylene glycol and 1.0 N sodium hydroxide)	SMILES	solubility in water (water)	irritation in the throat [1]
freely soluble	CC(C(=O)O)c1ccc(C(=O)c2cccs2)cc1 (stereo not shown) [Suprofen, p-(2-thenoyl)hydratropic acid]	poorly soluble; also recorded: very slightly soluble	very characteristic irritation
	CC(C(=O)O)c1ccc(C(=O)c2cccs2)cc1 (stereo not shown) [suprofen-sodium]		irritation effect occurs
